{"source": "ChEMBL document CHEMBL1133311", "about": "“Synthesis and PKC isozyme surrogate binding of indothiolactam-V, a new thioamide analogue of tumor promoting indolactam-V” (Bioorg Med Chem Lett, 2000)", "key": {"[1]": {"molecular_target": "T1, Protein kinase C beta type (Homo sapiens, UniProt P05771)", "T1 sequence (P05771 whole entry, the tested form may be a part)": "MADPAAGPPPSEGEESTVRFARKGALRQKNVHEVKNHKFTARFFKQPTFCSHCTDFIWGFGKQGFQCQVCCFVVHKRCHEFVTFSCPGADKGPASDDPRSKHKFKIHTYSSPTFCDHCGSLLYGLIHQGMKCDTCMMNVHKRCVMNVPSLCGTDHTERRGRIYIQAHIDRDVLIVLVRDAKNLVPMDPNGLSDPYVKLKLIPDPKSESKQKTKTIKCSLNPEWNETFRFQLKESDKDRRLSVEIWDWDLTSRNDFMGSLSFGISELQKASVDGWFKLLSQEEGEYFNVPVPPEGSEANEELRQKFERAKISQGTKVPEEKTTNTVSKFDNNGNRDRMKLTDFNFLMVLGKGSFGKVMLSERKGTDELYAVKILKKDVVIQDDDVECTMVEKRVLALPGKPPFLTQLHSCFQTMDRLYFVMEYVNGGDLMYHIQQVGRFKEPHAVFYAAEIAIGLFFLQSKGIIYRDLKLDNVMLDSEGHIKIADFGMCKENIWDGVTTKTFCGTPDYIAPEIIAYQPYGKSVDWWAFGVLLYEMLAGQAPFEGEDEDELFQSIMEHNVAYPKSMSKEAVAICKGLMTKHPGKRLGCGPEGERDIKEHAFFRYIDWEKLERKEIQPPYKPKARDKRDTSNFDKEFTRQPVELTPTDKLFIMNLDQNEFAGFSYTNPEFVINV", "test": "Displacement of [3H]- PDBu from Protein kinase C beta C1b domain"}, "[2]": {"molecular_target": "T2, Protein kinase C alpha type (Homo sapiens, UniProt P17252)", "test": "Displacement of [3H]- PDBu from Protein kinase C alpha C1a domain"}, "[3]": {"molecular_target": "T1, Protein kinase C beta type", "test": "Displacement of [3H]- PDBu from Protein kinase C beta C1a domain"}, "[4]": {"molecular_target": "T3, Protein kinase C gamma type (Homo sapiens, UniProt P05129)", "test": "Displacement of [3H]- PDBu from Protein kinase C gamma C1b domain"}, "[5]": {"molecular_target": "Protein kinase C theta type (Homo sapiens, UniProt Q04759)", "sequence (Q04759 whole entry, the tested form may be a part)": "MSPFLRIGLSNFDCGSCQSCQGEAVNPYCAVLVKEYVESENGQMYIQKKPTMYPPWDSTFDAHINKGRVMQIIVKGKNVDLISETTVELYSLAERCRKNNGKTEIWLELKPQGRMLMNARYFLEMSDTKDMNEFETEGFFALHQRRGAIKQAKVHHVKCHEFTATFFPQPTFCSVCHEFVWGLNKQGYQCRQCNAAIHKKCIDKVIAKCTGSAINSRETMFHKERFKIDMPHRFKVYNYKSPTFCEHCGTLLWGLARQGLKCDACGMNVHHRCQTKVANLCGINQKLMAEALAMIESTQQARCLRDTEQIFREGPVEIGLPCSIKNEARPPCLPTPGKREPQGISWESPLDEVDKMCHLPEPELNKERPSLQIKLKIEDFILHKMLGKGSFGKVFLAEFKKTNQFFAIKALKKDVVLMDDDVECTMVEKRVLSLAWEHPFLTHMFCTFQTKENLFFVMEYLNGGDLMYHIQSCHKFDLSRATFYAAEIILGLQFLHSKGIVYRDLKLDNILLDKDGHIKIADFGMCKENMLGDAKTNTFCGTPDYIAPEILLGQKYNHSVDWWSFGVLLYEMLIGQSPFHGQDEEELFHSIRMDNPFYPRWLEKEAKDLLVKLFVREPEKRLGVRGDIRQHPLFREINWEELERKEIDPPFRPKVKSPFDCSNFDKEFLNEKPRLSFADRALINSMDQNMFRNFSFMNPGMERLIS", "test": "Displacement of [3H]- PDBu from Protein kinase C theta C1b domain"}, "[6]": {"molecular_target": "T4, Protein kinase C delta type (Homo sapiens, UniProt Q05655)", "T4 sequence (Q05655 whole entry, the tested form may be a part)": "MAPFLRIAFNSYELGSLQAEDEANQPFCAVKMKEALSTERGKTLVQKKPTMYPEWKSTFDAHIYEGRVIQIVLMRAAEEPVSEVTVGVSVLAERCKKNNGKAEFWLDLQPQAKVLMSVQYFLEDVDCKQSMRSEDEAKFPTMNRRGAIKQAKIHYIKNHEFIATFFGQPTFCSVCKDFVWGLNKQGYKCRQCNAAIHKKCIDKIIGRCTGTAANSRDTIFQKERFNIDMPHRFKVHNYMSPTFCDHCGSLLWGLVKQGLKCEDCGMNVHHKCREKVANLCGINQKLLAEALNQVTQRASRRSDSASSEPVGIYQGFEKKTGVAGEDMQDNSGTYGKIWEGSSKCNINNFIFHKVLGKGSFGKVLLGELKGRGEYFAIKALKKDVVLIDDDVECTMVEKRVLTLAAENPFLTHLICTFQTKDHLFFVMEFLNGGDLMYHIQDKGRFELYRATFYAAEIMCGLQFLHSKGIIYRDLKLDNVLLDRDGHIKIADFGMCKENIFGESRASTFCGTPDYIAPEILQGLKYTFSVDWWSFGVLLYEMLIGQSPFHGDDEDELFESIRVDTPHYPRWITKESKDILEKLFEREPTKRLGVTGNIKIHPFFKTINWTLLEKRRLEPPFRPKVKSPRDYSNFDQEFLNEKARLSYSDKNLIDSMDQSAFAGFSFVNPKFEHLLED", "test": "Displacement of [3H]- PDBu from Protein kinase C delta C1b domain"}, "[7]": {"molecular_target": "T2, Protein kinase C alpha type", "test": "Displacement of [3H]- PDBu from Protein kinase C alpha C1b domain"}, "[8]": {"molecular_target": "T5, Protein kinase C epsilon type (Homo sapiens, UniProt Q02156)", "T5 sequence (Q02156 whole entry)": "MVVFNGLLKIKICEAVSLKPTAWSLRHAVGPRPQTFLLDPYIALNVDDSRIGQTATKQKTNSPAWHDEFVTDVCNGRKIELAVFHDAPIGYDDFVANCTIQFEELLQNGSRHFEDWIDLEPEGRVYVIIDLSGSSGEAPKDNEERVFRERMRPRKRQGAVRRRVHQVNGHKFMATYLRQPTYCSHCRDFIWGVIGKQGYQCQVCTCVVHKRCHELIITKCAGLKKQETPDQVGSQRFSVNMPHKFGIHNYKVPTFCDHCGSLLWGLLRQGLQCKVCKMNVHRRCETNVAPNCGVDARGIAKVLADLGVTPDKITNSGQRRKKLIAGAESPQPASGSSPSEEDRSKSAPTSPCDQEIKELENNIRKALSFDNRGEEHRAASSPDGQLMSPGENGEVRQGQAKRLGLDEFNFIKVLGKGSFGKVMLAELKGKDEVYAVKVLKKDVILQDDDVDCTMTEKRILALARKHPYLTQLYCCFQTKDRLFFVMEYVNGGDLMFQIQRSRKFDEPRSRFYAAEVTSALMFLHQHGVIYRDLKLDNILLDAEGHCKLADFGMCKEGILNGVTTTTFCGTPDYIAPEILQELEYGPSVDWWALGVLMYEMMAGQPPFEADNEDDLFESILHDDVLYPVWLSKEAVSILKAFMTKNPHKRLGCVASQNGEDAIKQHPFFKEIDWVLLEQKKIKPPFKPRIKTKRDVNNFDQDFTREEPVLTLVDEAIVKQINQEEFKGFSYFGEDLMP", "test": "Displacement of [3H]- PDBu from Protein kinase C epsilon C1b domain"}, "[9]": {"molecular_target": "T5, Protein kinase C epsilon type", "test": "Displacement of [3H]- PDBu from Protein kinase C epsilon C1a domain"}, "[10]": {"molecular_target": "T6, Protein kinase C eta type (Homo sapiens, UniProt P24723)", "T6 sequence (P24723 whole entry, the tested form may be a part)": "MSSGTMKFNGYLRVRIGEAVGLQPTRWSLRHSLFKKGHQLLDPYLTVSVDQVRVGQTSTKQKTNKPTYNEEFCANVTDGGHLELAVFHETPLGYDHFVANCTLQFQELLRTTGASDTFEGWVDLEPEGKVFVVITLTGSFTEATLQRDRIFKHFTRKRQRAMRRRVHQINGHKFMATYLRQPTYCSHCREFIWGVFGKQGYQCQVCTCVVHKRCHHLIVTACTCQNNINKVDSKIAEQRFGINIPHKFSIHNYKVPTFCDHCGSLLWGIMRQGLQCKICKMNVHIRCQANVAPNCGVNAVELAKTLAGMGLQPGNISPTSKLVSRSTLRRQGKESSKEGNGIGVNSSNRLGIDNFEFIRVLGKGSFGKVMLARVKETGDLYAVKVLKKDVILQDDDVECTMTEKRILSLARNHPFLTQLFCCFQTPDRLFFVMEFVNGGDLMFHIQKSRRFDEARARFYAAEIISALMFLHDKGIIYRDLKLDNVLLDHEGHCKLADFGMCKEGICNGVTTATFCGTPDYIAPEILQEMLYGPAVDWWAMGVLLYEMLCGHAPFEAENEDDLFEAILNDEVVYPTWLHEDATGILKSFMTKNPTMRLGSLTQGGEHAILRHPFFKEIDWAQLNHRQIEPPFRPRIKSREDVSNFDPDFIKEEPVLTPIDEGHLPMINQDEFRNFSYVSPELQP", "test": "Displacement of [3H]- PDBu from Protein kinase C eta C1a domain"}, "[11]": {"molecular_target": "T4, Protein kinase C delta type", "test": "Displacement of [3H]- PDBu from Protein kinase C delta C1a domain"}, "[12]": {"molecular_target": "T6, Protein kinase C eta type", "test": "Displacement of [3H]- PDBu from Protein kinase C eta C1b domain"}, "[13]": {"molecular_target": "T3, Protein kinase C gamma type", "test": "Displacement of [3H]- PDBu from Protein kinase C gamma C1a domain"}}}
{"smiles": "CC(C)[C@H]1C(=S)N[C@H](CO)Cc2c[nH]c3cccc(c23)N1C", "values": [{"measurement": "Ki", "setting": "[1]", "result": 226, "unit": "nM"}, {"measurement": "Ki", "setting": "[2]", "result": 261, "unit": "nM"}, {"measurement": "Ki", "setting": "[3]", "result": 180, "unit": "nM"}, {"measurement": "Ki", "setting": "[4]", "result": 288, "unit": "nM"}, {"measurement": "Ki", "setting": "[5]", "result": 61.6, "unit": "nM"}, {"measurement": "Ki", "setting": "[6]", "result": 67.5, "unit": "nM"}, {"measurement": "Ki", "setting": "[7]", "result": 2140, "unit": "nM"}, {"measurement": "Ki", "setting": "[8]", "result": 41.5, "unit": "nM"}, {"measurement": "Ki", "setting": "[9]", "result": 3860, "unit": "nM"}, {"measurement": "Ki", "setting": "[10]", "result": 2160, "unit": "nM"}, {"measurement": "Ki", "setting": "[11]", "result": 2950, "unit": "nM"}, {"measurement": "Ki", "setting": "[12]", "result": 20.6, "unit": "nM"}, {"measurement": "Ki", "setting": "[13]", "result": 296, "unit": "nM"}]}
{"smiles": "CC(C)[C@H]1C(=O)N[C@H](CO)Cc2c[nH]c3cccc(c23)N1C", "note": "[INDOLACTUM]", "values": [{"measurement": "Ki", "setting": "[1]", "result": 136, "unit": "nM"}, {"measurement": "Ki", "setting": "[2]", "result": 127, "unit": "nM"}, {"measurement": "Ki", "setting": "[3]", "result": 173, "unit": "nM"}, {"measurement": "Ki", "setting": "[4]", "result": 213, "unit": "nM"}, {"measurement": "Ki", "setting": "[5]", "result": 8.7, "unit": "nM"}, {"measurement": "Ki", "setting": "[6]", "result": 8.3, "unit": "nM"}, {"measurement": "Ki", "setting": "[7]", "result": 4000, "unit": "nM"}, {"measurement": "Ki", "setting": "[8]", "result": 7.7, "unit": "nM"}, {"measurement": "Ki", "setting": "[9]", "result": 4110, "unit": "nM"}, {"measurement": "Ki", "setting": "[10]", "result": 3770, "unit": "nM"}, {"measurement": "Ki", "setting": "[11]", "result": 1900, "unit": "nM"}, {"measurement": "Ki", "setting": "[12]", "result": 5.5, "unit": "nM"}, {"measurement": "Ki", "setting": "[13]", "result": 138, "unit": "nM"}]}
